Values after ≈ are worked out from the molar mass of the structure shown. Read-outs that look alike come from different tables or passages of the source.
What was measured:
Experiment in all cases: In vitro antibacterial activity test (broth microdilution)
Type in all cases: cell-based
E. coli AG100 = conditions: Escherichia coli
Outline: (§1)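 MIC90 (ug/mL) reported. CLSI microdilution in broth, clinical strains, 0.0626–128 ug/mL final compound, 2.5% v/v DMSO co-solvent.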

A. baumannii 49 = test system: A. baumannii 49
Outline: as §1

P. aeruginosa 43 = conditions: Pseudomonas aeruginosa
Outline: as §1

K. pneumoniae β11 = conditions: Klebsiella pneumoniae
Outline: as §1

E. cloacae β19 = conditions: Enterobacter cloacae
Outline: as §1

K. pneumoniae β10 = conditions: Klebsiella pneumoniae
Outline: as §1

K. pneumoniae β13 = conditions: Klebsiella pneumoniae
Outline: as §1

[1] = test system: A. calcoaceticus ATCC15473; conditions: Acinetobacter calcoaceticus
Outline: as §1

M. catarrhalis 2524 = conditions: Moraxella catarrhalis
Outline: as §1

P. aeruginosa 1912E = conditions: Pseudomonas aeruginosa, 1912E
Outline: as §1

K. pneumoniae β9 = conditions: Klebsiella pneumoniae
Outline: as §1

A. baumannii 52 = conditions: Acinetobacter baumannii
Outline: as §1

A. baumannii 46 = test system: A. baumannii 46
Outline: as §1

P. aeruginosa 40 = test system: P. aeruginosa 40
Outline: as §1

K. pneumoniae 2011E = conditions: Klebsiella pneumoniae, 2011E
Outline: as §1

E. coli β4 = conditions: Escherichia coli
Outline: as §1

P. aeruginosa 6065Y = conditions: Pseudomonas aeruginosa
Outline: as §1

K. pneumoniae β14 = conditions: Klebsiella pneumoniae
Outline: as §1

P. aeruginosa 37 = conditions: Pseudomonas aeruginosa, 37, P. aeruginosa 37
Outline: as §1

[2] = AG100, E. coli AG100, read-out: MIC90
[3] = Acinetobacter baumannii, A. baumannii 49, read-out: MIC90
[4] = P. aeruginosa 43, read-out: MIC90
[5] = K. pneumoniae β11, read-out: MIC90
[6] = K. pneumoniae β10, read-out: MIC90
[7] = K. pneumoniae β13, read-out: MIC90
[8] = A. calcoaceticus ATCC15473, read-out: MIC90
[9] = M. catarrhalis 2524, read-out: MIC90
[10] = K. pneumoniae β9, read-out: MIC90
[11] = A. baumannii 52, read-out: MIC90
[12] = Acinetobacter baumannii, A. baumannii 46, read-out: MIC90
[13] = Pseudomonas aeruginosa, 40, P. aeruginosa 40, read-out: MIC90
[14] = K. pneumoniae 2011E, read-out: MIC90
[15] = Acinetobacter baumannii, 49, A. baumannii 49
[16] = ATCC15473, A. calcoaceticus ATCC15473
[17] = Acinetobacter baumannii, 46, A. baumannii 46

Row | Compound | MIC90 (E. coli AG100; [2]) | MIC90 (E. coli AG100; AG100) | MIC90 (A. baumannii 49; [15]) | MIC90 (P. aeruginosa 43; 43) | MIC90 (K. pneumoniae β11) | MIC90 (E. cloacae β19) | MIC90 (K. pneumoniae β10) | MIC90 (K. pneumoniae β13) | MIC90 [1, 16] | MIC90 (M. catarrhalis 2524; 2524) | MIC90 (P. aeruginosa 1912E) | MIC90 (K. pneumoniae β9) | MIC90 (A. baumannii 52; 52) | MIC90 (A. baumannii 46; [17]) | MIC90 (P. aeruginosa 40; Pseudomonas aeruginosa, 40) | MIC90 (K. pneumoniae 2011E) | MIC90 (E. coli β4) | MIC90 (P. aeruginosa 6065Y; 6065Y) | MIC90 (K. pneumoniae β14) | MIC90 (P. aeruginosa 37) | further results
1 | CC(C)(O/N=C(\C(=O)N[C@@H]1C(=O)N2C(C(=O)[O-])=C(C[n+]3cnc(N)c(NCCNC(=O)c4cc(=O)c(O)cn4O)c3)CSC12)c1nsc(N)n1)C(=O)O (stereo partly drawn) [Compound 16] | 1 µg/mL (≈ 1.29 µM) | – | – | – | – | – | – | – | – | – | – | – | – | – | – | – | – | – | – | – | MIC90 (A. baumannii 49; [3]): > 128 µg/mL; MIC90 (P. aeruginosa 43; [4]): 2 µg/mL (≈ 2.58 µM); MIC90 (K. pneumoniae β11; [5]): > 128 µg/mL; MIC90 (E. cloacae β19; read-out: MIC90): 16 µg/mL (≈ 20.7 µM); MIC90 (K. pneumoniae β10; [6]): 2 µg/mL (≈ 2.58 µM); MIC90 (K. pneumoniae β13; [7]): 32 µg/mL (≈ 41.3 µM); MIC90 [1, 8]: 0.25 µg/mL (≈ 0.323 µM); MIC90 (M. catarrhalis 2524; [9]): 1 µg/mL (≈ 1.29 µM); MIC90 (P. aeruginosa 1912E; read-out: MIC90): 1 µg/mL (≈ 1.29 µM); MIC90 (K. pneumoniae β9; [10]): 128 µg/mL (≈ 165 µM); MIC90 (A. baumannii 52; [11]): 32 µg/mL (≈ 41.3 µM); MIC90 (A. baumannii 46; [12]): 2 µg/mL (≈ 2.58 µM); MIC90 (P. aeruginosa 40; [13]): 0.25 µg/mL (≈ 0.323 µM); MIC90 (K. pneumoniae 2011E; [14]): 8 µg/mL (≈ 10.3 µM); MIC90 (E. coli β4; read-out: MIC90): 4 µg/mL (≈ 5.16 µM); MIC90 (P. aeruginosa 6065Y; read-out: MIC90): 2 µg/mL (≈ 2.58 µM); MIC90 (K. pneumoniae β14; read-out: MIC90): 128 µg/mL (≈ 165 µM); MIC90 (P. aeruginosa 37; read-out: MIC90): 0.5 µg/mL (≈ 0.645 µM)
2 | C[C@H](O/N=C(\C(=O)N[C@@H]1C(=O)N2C(C(=O)[O-])=C(/C=C/C[n+]3cnc(N)c(NCCN)c3)CSC12)c1csc(N)n1)C(=O)O (stereo partly drawn) [Compound 52] | – | < 0.0625 µg/mL | > 128 µg/mL | 32 µg/mL (≈ 50.6 µM) | 128 µg/mL (≈ 202 µM) | 8 µg/mL (≈ 12.6 µM) | 1 µg/mL (≈ 1.58 µM) | 4 µg/mL (≈ 6.32 µM) | 1 µg/mL (≈ 1.58 µM) | < 0.0625 µg/mL | 0.5 µg/mL (≈ 0.79 µM) | 4 µg/mL (≈ 6.32 µM) | > 128 µg/mL | 1 µg/mL (≈ 1.58 µM) | 2 µg/mL (≈ 3.16 µM) | < 0.0625 µg/mL | < 0.0625 µg/mL | 4 µg/mL (≈ 6.32 µM) | 8 µg/mL (≈ 12.6 µM) | 16 µg/mL (≈ 25.3 µM) | –
3 | CNCCNc1c[n+](C/C=C/C2=C(C(=O)[O-])N3C(=O)[C@@H](NC(=O)/C(=N\OC(C)(C)C(=O)O)c4csc(N)n4)C3SC2)cnc1N (stereo partly drawn) [Compound 51] | – | 0.125 µg/mL (≈ 0.189 µM) | > 128 µg/mL | 64 µg/mL (≈ 96.9 µM) | 32 µg/mL (≈ 48.4 µM) | 32 µg/mL (≈ 48.4 µM) | 0.25 µg/mL (≈ 0.378 µM) | 0.5 µg/mL (≈ 0.757 µM) | 0.5 µg/mL (≈ 0.757 µM) | < 0.0625 µg/mL | 2 µg/mL (≈ 3.03 µM) | 0.5 µg/mL (≈ 0.757 µM) | 128 µg/mL (≈ 194 µM) | 8 µg/mL (≈ 12.1 µM) | 4 µg/mL (≈ 6.05 µM) | 0.5 µg/mL (≈ 0.757 µM) | 0.125 µg/mL (≈ 0.189 µM) | 32 µg/mL (≈ 48.4 µM) | 0.5 µg/mL (≈ 0.757 µM) | 32 µg/mL (≈ 48.4 µM) | –
4 | CC(C)(O/N=C(\C(=O)N[C@@H]1C(=O)N2C(C(=O)[O-])=C(C[n+]3cnc(N)c(NC(=O)c4cc(=O)c(O)cn4O)c3)CSC12)c1nc(N)sc1Cl)C(=O)O (stereo partly drawn) [Compound 22] | 2 µg/mL (≈ 2.61 µM) | – | – | – | – | – | – | – | – | – | – | – | – | – | – | – | – | – | – | – | MIC90 (A. baumannii 49; [3]): 16 µg/mL (≈ 20.9 µM); MIC90 (P. aeruginosa 43; [4]): 0.5 µg/mL (≈ 0.653 µM); MIC90 (K. pneumoniae β11; [5]): 64 µg/mL (≈ 83.6 µM); MIC90 (E. cloacae β19; read-out: MIC90): 32 µg/mL (≈ 41.8 µM); MIC90 (K. pneumoniae β10; [6]): 1 µg/mL (≈ 1.31 µM); MIC90 (K. pneumoniae β13; [7]): 2 µg/mL (≈ 2.61 µM); MIC90 [1, 8]: 0.5 µg/mL (≈ 0.653 µM); MIC90 (M. catarrhalis 2524; [9]): 0.5 µg/mL (≈ 0.653 µM); MIC90 (P. aeruginosa 1912E; read-out: MIC90): 2 µg/mL (≈ 2.61 µM); MIC90 (K. pneumoniae β9; [10]): 8 µg/mL (≈ 10.5 µM); MIC90 (A. baumannii 52; [11]): 2 µg/mL (≈ 2.61 µM); MIC90 (A. baumannii 46; [12]): 128 µg/mL (≈ 167 µM); MIC90 (P. aeruginosa 40; [13]): 2 µg/mL (≈ 2.61 µM); MIC90 (K. pneumoniae 2011E; [14]): 16 µg/mL (≈ 20.9 µM); MIC90 (E. coli β4; read-out: MIC90): 32 µg/mL (≈ 41.8 µM); MIC90 (P. aeruginosa 6065Y; read-out: MIC90): 2 µg/mL (≈ 2.61 µM); MIC90 (K. pneumoniae β14; read-out: MIC90): 128 µg/mL (≈ 167 µM); MIC90 (P. aeruginosa 37; read-out: MIC90): 1 µg/mL (≈ 1.31 µM)
5 | CC(C)(O/N=C(\C(=O)N[C@@H]1C(=O)N2C(C(=O)[O-])=C(C[n+]3cnc(NCCCCN)c(NCCCCN)c3)CSC12)c1csc(N)n1)C(=O)O (stereo partly drawn) [Compound 41] | – | 1 µg/mL (≈ 1.39 µM) | 32 µg/mL (≈ 44.5 µM) | 128 µg/mL (≈ 178 µM) | 8 µg/mL (≈ 11.1 µM) | 4 µg/mL (≈ 5.56 µM) | 2 µg/mL (≈ 2.78 µM) | 2 µg/mL (≈ 2.78 µM) | 1 µg/mL (≈ 1.39 µM) | 0.125 µg/mL (≈ 0.174 µM) | 4 µg/mL (≈ 5.56 µM) | 2 µg/mL (≈ 2.78 µM) | 32 µg/mL (≈ 44.5 µM) | 32 µg/mL (≈ 44.5 µM) | 4 µg/mL (≈ 5.56 µM) | 4 µg/mL (≈ 5.56 µM) | 1 µg/mL (≈ 1.39 µM) | 16 µg/mL (≈ 22.2 µM) | 2 µg/mL (≈ 2.78 µM) | 8 µg/mL (≈ 11.1 µM) | –
6 | CC(C)(O/N=C(\C(=O)N[C@@H]1C(=O)N2C(C(=O)[O-])=C(/C=C/C[n+]3cnc(N)c(NC(=O)CN)c3N)CSC12)c1csc(N)n1)C(=O)O (stereo partly drawn) [Compound 43] | – | 0.25 µg/mL (≈ 0.37 µM) | > 128 µg/mL | > 128 µg/mL | 32 µg/mL (≈ 47.4 µM) | 0.5 µg/mL (≈ 0.74 µM) | 0.5 µg/mL (≈ 0.74 µM) | 0.5 µg/mL (≈ 0.74 µM) | 4 µg/mL (≈ 5.92 µM) | < 0.0625 µg/mL | 4 µg/mL (≈ 5.92 µM) | 1 µg/mL (≈ 1.48 µM) | > 128 µg/mL | 32 µg/mL (≈ 47.4 µM) | 16 µg/mL (≈ 23.7 µM) | 0.5 µg/mL (≈ 0.74 µM) | 0.5 µg/mL (≈ 0.74 µM) | 16 µg/mL (≈ 23.7 µM) | 1 µg/mL (≈ 1.48 µM) | 32 µg/mL (≈ 47.4 µM) | –

From patent US9630977B2, “Cephalosporin derivatives and pharmaceutical compositions thereof” (Legochem Biosciences, Inc., priority 2011, dated 2017)
